# Data: PMC5218480 (PLoS ONE, 2017)
# System: MV-4-11 cells
# Test: Gene expression microarray analysis (Affymetrix PrimeView) and GSEA
# Assay type: cell-based, human
# Parameters: RFU PODN (11730768_x_at) / Fold change /veh PODN (11730768_x_at) / RFU LINC00158 (11744669_a_at) / Fold change /veh LINC00158 (11744669_a_at) / RFU DUSP10 (11751237_a_at) / Fold change /veh DUSP10 (11751237_a_at) / RFU ID3 (11757404_x_at) / Fold change /veh ID3 (11757404_x_at) / RFU PLEKHG5 (11737974_s_at) / Fold change /veh PLEKHG5 (11737974_s_at) / RFU LRRC4B (11730491_at) / Fold change /veh LRRC4B (11730491_at) / RFU GIMAP4 (11747438_a_at) / Fold change /veh GIMAP4 (11747438_a_at) / RFU KRT8 (11758183_x_at) / Fold change /veh KRT8 (11758183_x_at) / RFU CNN1 (11734310_a_at) / Fold change /veh CNN1 (11734310_a_at) / RFU VPS37D (11726825_at) / Fold change /veh VPS37D (11726825_at) / RFU C10orf10 (11716522_x_at) / Fold change /veh C10orf10 (11716522_x_at) / RFU KIR2DL2 /// KIR2DL4 /// KIR2DL5A /// KIR2DL5B /// KIR2DS1 /// KIR2DS2 /// KIR2DS3 /// KIR2DS4 /// KIR3DL3 /// KIR3DL3 /// KIR3DS1 (11738374_at) / Fold change /veh KIR2DL2 /// KIR2DL4 /// KIR2DL5A /// KIR2DL5B /// KIR2DS1 /// KIR2DS2 /// KIR2DS3 /// KIR2DS4 /// KIR3DL3 /// KIR3DL3 /// KIR3DS1 (11738374_at) / RFU C1QL1 (11718748_at) / Fold change /veh C1QL1 (11718748_at) / RFU TMPRSS4 (11747572_a_at) / Fold change /veh TMPRSS4 (11747572_a_at) / RFU HAMP (11756126_x_at) / Fold change /veh HAMP (11756126_x_at) / RFU RNFT2 (11725882_a_at) / Fold change /veh RNFT2 (11725882_a_at) / RFU NR4A2 (11747474_a_at) / Fold change /veh NR4A2 (11747474_a_at) / RFU ABCC12 (11746883_a_at) / Fold change /veh ABCC12 (11746883_a_at) / RFU TMEM136 (11760407_x_at) / Fold change /veh TMEM136 (11760407_x_at) / RFU CLDN22 /// WWC2 (11732394_at) / Fold change /veh CLDN22 /// WWC2 (11732394_at) / RFU HLA-DPB1 (11760878_x_at) / Fold change /veh HLA-DPB1 (11760878_x_at) / RFU SPINT1 (11716480_a_at) / Fold change /veh SPINT1 (11716480_a_at) / RFU GAP43 (11754022_s_at) / Fold change /veh GAP43 (11754022_s_at) / RFU A4GNT (11735810_at) / Fold change /veh A4GNT (11735810_at) / RFU PRB3 (11715151_x_at) / Fold change /veh PRB3 (11715151_x_at) / RFU TUBB4B (11761932_at) / Fold change /veh TUBB4B (11761932_at) / RFU CAPN14 (11732068_a_at) / Fold change /veh CAPN14 (11732068_a_at) / RFU TMCC2 (11721928_a_at) / Fold change /veh TMCC2 (11721928_a_at) / RFU IRGQ (11745062_a_at) / Fold change /veh IRGQ (11745062_a_at) / RFU FAM174B (11720279_a_at) / Fold change /veh FAM174B (11720279_a_at) / RFU TMPRSS4 (11748680_a_at) / Fold change /veh TMPRSS4 (11748680_a_at) / RFU FAM212B (11763350_a_at) / Fold change /veh FAM212B (11763350_a_at) / RFU PLEKHG5 (11743358_a_at) / Fold change /veh PLEKHG5 (11743358_a_at) / RFU ZSCAN30 (11745921_a_at) / Fold change /veh ZSCAN30 (11745921_a_at) / RFU CMKLR1 (11741424_a_at) / Fold change /veh CMKLR1 (11741424_a_at) / RFU LOC101060620 /// MAPK8IP1 (11723275_at) / Fold change /veh LOC101060620 /// MAPK8IP1 (11723275_at) / RFU SPTSSB (11747773_x_at) / Fold change /veh SPTSSB (11747773_x_at) / RFU PRSS12 (11739890_at) / Fold change /veh PRSS12 (11739890_at) / RFU BIN1 (11741810_x_at) / Fold change /veh BIN1 (11741810_x_at) / RFU WNT11 (11732464_a_at) / Fold change /veh WNT11 (11732464_a_at) / RFU C10orf10 (11716521_a_at) / Fold change /veh C10orf10 (11716521_a_at) / RFU C5orf56 (11738089_at) / Fold change /veh C5orf56 (11738089_at) / RFU CYB561 (11721691_x_at) / Fold change /veh CYB561 (11721691_x_at) / RFU ANKRD19P (11752326_a_at) / Fold change /veh ANKRD19P (11752326_a_at) / RFU OR2T12 /// OR2T33 /// OR2T8 (11738714_s_at) / Fold change /veh OR2T12 /// OR2T33 /// OR2T8 (11738714_s_at) / RFU VCAN (11748164_a_at) / Fold change /veh VCAN (11748164_a_at) / RFU JSRP1 (11732532_at) / Fold change /veh JSRP1 (11732532_at) / RFU KRTAP10-11 (11738290_x_at) / Fold change /veh KRTAP10-11 (11738290_x_at) / RFU MYO3A (11730013_a_at) / Fold change /veh MYO3A (11730013_a_at) / RFU EBF3 (11725865_a_at) / Fold change /veh EBF3 (11725865_a_at) / RFU CAMK2N1 (11719241_x_at) / Fold change /veh CAMK2N1 (11719241_x_at) / RFU C5orf56 (11738088_a_at) / Fold change /veh C5orf56 (11738088_a_at) / RFU OLFML3 (11715873_a_at) / Fold change /veh OLFML3 (11715873_a_at) / RFU LOC100653217 /// NTM (11731650_a_at) / Fold change /veh LOC100653217 /// NTM (11731650_a_at) / RFU MAPK11 (11762145_a_at) / Fold change /veh MAPK11 (11762145_a_at) / RFU FIZ1 (11724087_x_at) / Fold change /veh FIZ1 (11724087_x_at) / RFU OASL (11726364_x_at) / Fold change /veh OASL (11726364_x_at) / RFU SOX15 (11748057_x_at) / Fold change /veh SOX15 (11748057_x_at) / RFU CD79A (11719716_a_at) / Fold change /veh CD79A (11719716_a_at) / RFU HIST1H1D (11736915_at) / Fold change /veh HIST1H1D (11736915_at) / RFU CASKIN2 (11723855_a_at) / Fold change /veh CASKIN2 (11723855_a_at) / RFU LOC730098 (11760151_x_at) / Fold change /veh LOC730098 (11760151_x_at) / RFU OR4N2 (11742367_at) / Fold change /veh OR4N2 (11742367_at) / RFU PRRT2 (11749266_a_at) / Fold change /veh PRRT2 (11749266_a_at) / RFU SNX32 (11753110_a_at) / Fold change /veh SNX32 (11753110_a_at) / RFU CDHR5 (11726645_a_at) / Fold change /veh CDHR5 (11726645_a_at) / RFU RCAN1 (11760418_a_at) / Fold change /veh RCAN1 (11760418_a_at) / RFU FAM167A (11723789_a_at) / Fold change /veh FAM167A (11723789_a_at) / RFU FAM26E (11764081_at) / Fold change /veh FAM26E (11764081_at) / RFU ISYNA1 (11749810_s_at) / Fold change /veh ISYNA1 (11749810_s_at) / RFU ACY1 (11761880_at) / Fold change /veh ACY1 (11761880_at) / RFU 11764098_at / Fold change /veh 11764098_at / RFU SAMD14 (11745864_x_at) / Fold change /veh SAMD14 (11745864_x_at) / RFU NPB (11741838_a_at) / Fold change /veh NPB (11741838_a_at) / RFU TMPRSS6 (11731388_a_at) / Fold change /veh TMPRSS6 (11731388_a_at) / RFU KRTAP10-2 (11738614_at) / Fold change /veh KRTAP10-2 (11738614_at) / RFU ARHGAP8 /// PRR5-ARHGAP8 (11727945_x_at) / Fold change /veh ARHGAP8 /// PRR5-ARHGAP8 (11727945_x_at) / RFU KRTAP5-7 /// NADSYN1 (11734609_at) / Fold change /veh KRTAP5-7 /// NADSYN1 (11734609_at) / RFU RASL12 (11751679_a_at) / Fold change /veh RASL12 (11751679_a_at) / RFU CDKN2B (11736163_a_at) / Fold change /veh CDKN2B (11736163_a_at) / RFU PRF1 (11729649_at) / Fold change /veh PRF1 (11729649_at) / RFU, ZNF638 /// ZNF638-IT1 / Fold change vs veh, ZNF638 /// ZNF638-IT1 / RFU, PANK3 / Fold change vs veh, PANK3 / RFU, SH3YL1 / Fold change vs veh, SH3YL1 / RFU, ZEB2 / Fold change vs veh, ZEB2 / RFU, NRIP1 / Fold change vs veh, NRIP1 / RFU, PTTG1IP / Fold change vs veh, PTTG1IP / RFU, CAPN2 / Fold change vs veh, CAPN2 / RFU, MED14 / Fold change vs veh, MED14 / RFU, SNORA58 / Fold change vs veh, SNORA58 / RFU, C1orf63 / Fold change vs veh, C1orf63 / RFU, LRRFIP1 / Fold change vs veh, LRRFIP1 / RFU, NDUFAF7 / Fold change vs veh, NDUFAF7 / RFU, SLC12A2 / Fold change vs veh, SLC12A2 / RFU, IBTK / Fold change vs veh, IBTK / RFU, ESF1 / Fold change vs veh, ESF1 / Fold change vs veh, TMEM50B / RFU, TAOK1 / Fold change vs veh, TAOK1 / RFU, ACBD3 / Fold change vs veh, ACBD3 / RFU, TMA16 / Fold change vs veh, TMA16 / RFU, RWDD3 / Fold change vs veh, RWDD3 / RFU, BCAT1 / Fold change vs veh, BCAT1 / RFU, EDEM3 / Fold change vs veh, EDEM3 / RFU, TMEM33 / Fold change vs veh, TMEM33 / RFU, WDR75 / Fold change vs veh, WDR75 / RFU, AHCTF1 / Fold change vs veh, AHCTF1 / RFU, TFRC / Fold change vs veh, TFRC / RFU, ZDHHC17 / Fold change vs veh, ZDHHC17 / RFU, NOM1 / Fold change vs veh, NOM1 / RFU, ARL8B / Fold change vs veh, ARL8B / RFU, ZBTB11 / Fold change vs veh, ZBTB11 / RFU, TAMM41 / Fold change vs veh, TAMM41 / RFU, KIAA1704 /// LOC100996395 / Fold change vs veh, KIAA1704 /// LOC100996395 / RFU, ING1 / Fold change vs veh, ING1 / RFU, TRMT61B / Fold change vs veh, TRMT61B / RFU, FUBP3 / Fold change vs veh, FUBP3 / RFU, TP53 / Fold change vs veh, TP53 / RFU, TNKS2 / Fold change vs veh, TNKS2 / RFU, ZFP14 / Fold change vs veh, ZFP14 / RFU, ACTR2 / Fold change vs veh, ACTR2 / RFU, PPP3R1 / Fold change vs veh, PPP3R1 / RFU, PIK3R1 / Fold change vs veh, PIK3R1 / RFU, HNRNPA1 / Fold change vs veh, HNRNPA1 / RFU, RNF170 / Fold change vs veh, RNF170 / RFU, ZNF28 / Fold change vs veh, ZNF28 / RFU, RNGTT / Fold change vs veh, RNGTT / RFU, OGT / Fold change vs veh, OGT / RFU, BRD1 / Fold change vs veh, BRD1 / RFU, MARS / Fold change vs veh, MARS / RFU, ZNF655 / Fold change vs veh, ZNF655 / RFU, FAHD1 / Fold change vs veh, FAHD1 / RFU, BDP1 / Fold change vs veh, BDP1 / RFU, LRRCC1 / Fold change vs veh, LRRCC1 / RFU, ARID1A / Fold change vs veh, ARID1A / RFU, ZNF146 / Fold change vs veh, ZNF146 / RFU, ZNF330 / Fold change vs veh, ZNF330 / RFU, GPN3 / Fold change vs veh, GPN3 / RFU, C9orf123 / Fold change vs veh, C9orf123 / RFU, N4BP2L2 / Fold change vs veh, N4BP2L2 / RFU, ARFIP1 / Fold change vs veh, ARFIP1 / RFU, FAM179B / Fold change vs veh, FAM179B / RFU, BCL10 / Fold change vs veh, BCL10 / RFU, UHRF1BP1L / Fold change vs veh, UHRF1BP1L / RFU, BET1 / Fold change vs veh, BET1 / RFU, CNOT2 / Fold change vs veh, CNOT2 / RFU, ZNF268 / Fold change vs veh, ZNF268 / Fold change vs veh, ZNF507 / RFU, DGCR2 / Fold change vs veh, DGCR2 / RFU, WDSUB1 / Fold change vs veh, WDSUB1 / Fold change vs veh, HSP90B1 /// MIR3652 / RFU, ADSS / Fold change vs veh, ADSS / RFU, GK / Fold change vs veh, GK / RFU, ZNF148 / Fold change vs veh, ZNF148 / RFU, TAF9 / Fold change vs veh, TAF9 / RFU, SLC1A5 / Fold change vs veh, SLC1A5 / RFU, SLMO2 / Fold change vs veh, SLMO2 / RFU, ABCC4 / Fold change vs veh, ABCC4 / RFU, LOC101060439 /// RAP1B / Fold change vs veh, LOC101060439 /// RAP1B / RFU, RFX7 / Fold change vs veh, RFX7 / RFU, GTPBP10 / Fold change vs veh, GTPBP10 / RFU, CNEP1R1 / Fold change vs veh, CNEP1R1 / RFU, BIVM-ERCC5 /// ERCC5 / Fold change vs veh, BIVM-ERCC5 /// ERCC5 / RFU, ILF3 / Fold change vs veh, ILF3 / RFU 11762660_at / Fold change /veh 11762660_at / RFU VCAN (11757783_s_at) / Fold change /veh VCAN (11757783_s_at) / RFU DDX43 (11728927_at) / Fold change /veh DDX43 (11728927_at) / RFU KRT8 (11758188_x_at) / Fold change /veh KRT8 (11758188_x_at) / RFU NKD1 (11759106_at) / Fold change /veh NKD1 (11759106_at) / RFU SRD5A1 (11742802_a_at) / Fold change /veh SRD5A1 (11742802_a_at) / RFU TPSAB1 /// TPSB2 (11721975_s_at) / Fold change /veh TPSAB1 /// TPSB2 (11721975_s_at) / RFU GSTM3 (11746129_a_at) / Fold change /veh GSTM3 (11746129_a_at) / RFU IL23R (11737362_x_at) / Fold change /veh IL23R (11737362_x_at) / RFU TMEM51 (11727254_a_at) / Fold change /veh TMEM51 (11727254_a_at) / RFU PIWIL2 (11732686_x_at) / Fold change /veh PIWIL2 (11732686_x_at) / RFU ORM1 (11744905_x_at) / Fold change /veh ORM1 (11744905_x_at) / RFU CCDC152 (11743942_at) / Fold change /veh CCDC152 (11743942_at) / RFU ECM1 (11717891_a_at) / Fold change /veh ECM1 (11717891_a_at) / RFU IL23R (11748794_a_at) / Fold change /veh IL23R (11748794_a_at) / RFU TNFAIP8L3 (11732012_x_at) / Fold change /veh TNFAIP8L3 (11732012_x_at) / RFU MBOAT4 (11741988_at) / Fold change /veh MBOAT4 (11741988_at) / RFU 11764193_at / Fold change /veh 11764193_at / RFU TMEM53 (11763286_at) / Fold change /veh TMEM53 (11763286_at) / RFU MAGEB2 (11727129_at) / Fold change /veh MAGEB2 (11727129_at) / RFU TMEM200A (11744735_a_at) / Fold change /veh TMEM200A (11744735_a_at) / RFU CCDC152 (11751479_a_at) / Fold change /veh CCDC152 (11751479_a_at) / RFU FAM211A (11726209_a_at) / Fold change /veh FAM211A (11726209_a_at) / RFU RGS16 (11746705_a_at) / Fold change /veh RGS16 (11746705_a_at) / RFU VCAN (11755009_s_at) / Fold change /veh VCAN (11755009_s_at) / RFU RHOB (11743442_s_at) / Fold change /veh RHOB (11743442_s_at) / RFU RGS16 (11720943_a_at) / Fold change /veh RGS16 (11720943_a_at) / RFU RGS16 (11720944_at) / Fold change /veh RGS16 (11720944_at) / RFU, VPS4B / Fold change vs veh, VPS4B / RFU, CREB1 / Fold change vs veh, CREB1 / RFU, DNAJC13 / Fold change vs veh, DNAJC13 / RFU, GNAQ / Fold change vs veh, GNAQ / RFU, CDK5R1 / Fold change vs veh, CDK5R1 / RFU, ZRANB3 / Fold change vs veh, ZRANB3 / RFU, CUL4A / Fold change vs veh, CUL4A / RFU, CCNY / Fold change vs veh, CCNY / RFU, UFL1 / Fold change vs veh, UFL1 / RFU, COG3 / Fold change vs veh, COG3 / RFU, DIAPH2 / Fold change vs veh, DIAPH2 / RFU, SKA2 / Fold change vs veh, SKA2 / RFU, AFF3 / Fold change vs veh, AFF3 / RFU, LMF1 / Fold change vs veh, LMF1 / RFU, IPO11 / Fold change vs veh, IPO11 / RFU, DFFB / Fold change vs veh, DFFB / RFU, FOXP1 / Fold change vs veh, FOXP1 / RFU, CARD8 / Fold change vs veh, CARD8 / RFU, STRN3 / Fold change vs veh, STRN3 / RFU, ADK / Fold change vs veh, ADK / RFU, RASSF2 / Fold change vs veh, RASSF2 / RFU, WIPF1 / Fold change vs veh, WIPF1 / RFU, LARP1B / Fold change vs veh, LARP1B / RFU, RASA1 / Fold change vs veh, RASA1 / RFU, RB1 / Fold change vs veh, RB1 / RFU, PPFIA1 / Fold change vs veh, PPFIA1 / RFU, MAT2A / Fold change vs veh, MAT2A / RFU, CCT5 / Fold change vs veh, CCT5 / RFU, WDR92 / Fold change vs veh, WDR92 / RFU, CUX1 / Fold change vs veh, CUX1 / RFU, TTC7A / Fold change vs veh, TTC7A / RFU, TMEM135 / Fold change vs veh, TMEM135 / RFU, DEPTOR / Fold change vs veh, DEPTOR / RFU, CPM / Fold change vs veh, CPM / RFU, DNAJB6 / Fold change vs veh, DNAJB6 / RFU, CACNA2D3 / Fold change vs veh, CACNA2D3 / RFU, DTX4 / Fold change vs veh, DTX4 / RFU, TFCP2 / Fold change vs veh, TFCP2 / RFU, GMCL1 /// GMCL1P1 / Fold change vs veh, GMCL1 /// GMCL1P1 / RFU, AEBP2 / Fold change vs veh, AEBP2 / RFU, SNHG1 /// SNORD22 /// SNORD25 /// SNORD26 /// SNORD27 /// SNORD28 /// SNORD29 /// SNORD31 / Fold change vs veh, SNHG1 /// SNORD22 /// SNORD25 /// SNORD26 /// SNORD27 /// SNORD28 /// SNORD29 /// SNORD31 / Fold change (Aza/veh), C12orf56 (ProbeSet 11735607_a_at) / Fold change (ACY-1035/veh), C12orf56 (ProbeSet 11735607_a_at) / Fold change (Aza/veh), FGFR1OP (ProbeSet 11751329_s_at) / Fold change (ACY-1035/veh), FGFR1OP (ProbeSet 11751329_s_at) / Fold change (Aza/veh), VPS36 (ProbeSet 11739960_a_at) / Fold change (ACY-1035/veh), VPS36 (ProbeSet 11739960_a_at) / RFU SYPL1 (11715823_x_at) / Fold change /veh SYPL1 (11715823_x_at) / RFU IGFBP7 (11715501_s_at) / Fold change /veh IGFBP7 (11715501_s_at) / RFU REEP3 (11722064_at) / Fold change /veh REEP3 (11722064_at) / RFU IGLL1 (11728026_x_at) / Fold change /veh IGLL1 (11728026_x_at): dose or concentration left out as unconfirmed
# Conditions: ProbeSet 11727827_x_at; LIST B
compound,measurement,value
Nc1ncn([C@@H]2O[C@H](CO)[C@@H](O)[C@H]2O)c(=O)n1 [azacitidine],"RFU, NDUFAF7",58.08 RFU
